Tests used:
[1] = Determination of particle size and polydispersity index (PDI) of lipid nanoparticles by dynamic light scattering; assay type: physicochemical; conditions: LNP formulation of named cationic lipid/DSPC/cholesterol/DMG-PEG2000 49:10:39.5:1.5; for Particle size (nm): 90° scattering angle, 25° C
Description: The cationic lipids listed in Table 1 were dissolved in ethanol with DSPC (AVT (Shanghai) Pharmaceutical Technology Co., Ltd.), cholesterol (AVT (Shanghai) Pharmaceutical Technology Co., Ltd.) and DMG-PEG2000 according to a molar ratio of 49:10:39.5:1.5, respectively, to prepare lipid solution in ethanol. The lipid solution in ethanol was quickly added to citrate buffer (pH=4 to 5) by ethanol injection method, and vortexed for 30 s for later use. eGFP-mRNA (from Shanghai Biohub International Trade Co., Ltd) or Fluc-mRNA (from Shanghai Biohub International Trade Co., Ltd) was diluted in citrate buffer (pH=4 to 5) to give an aqueous mRNA solution. A certain volume of liposome solution and mRNA aqueous solution were used to prepare liposomes at a weight ratio of total lipids to mRNA of 15:1. The mixtures were sonicated at 25° C. for 15 min (with an ultrasonic frequency of 40 kHz and an ultrasonic power of 800 W). The resulting liposomes were diluted to 10 times volume with PBS, and then ultrafiltered with a 300 KDa ultrafiltration tube to remove ethanol. Then the volume was fixed to a certain volume with PBS to give an LNP formulation encapsulating eGFP-mRNA or Fluc-mRNA using cationic lipid/DSPC/cholesterol/DMG-PEG2000 (49:10:39.5:1.5 in molar percentage).
The particle size and polydispersity index (PDI) were determined by dynamic light scattering using Malvern laser particle size analyzer.
10 μL of the liposome solution was weighed, diluted to 1 mL with RNase-free deionized water, and added to the sample pool. Each sample was measured in triplicate. The measurement conditions were: 90° scattering angle, and 25° C.

[2] = tested on: 293T cells; test: Cell survival rate determination (CCK-8); assay type: cell-based; conditions: for Cell survival rate (%): LNP formulation containing 1.5 μg Fluc-mRNA, 24 hours, CCK-8, absorbance at 450 nm; for cell survival rate lower than that of YK-101: cell survival rate of YK-101 minus that of named substance; for cell survival rate lower than that of YK-107: cell survival rate of YK-107 minus that of named substance; for cell survival rate lower than that of YK-108: cell survival rate of YK-108 minus that of named substance
Description: (§1) Cell recovery and passage: 293T cells were recovered, cultured in a culture dish, and passaged to the required number of cells.
(§2) Seeding plate: The cells in the culture dish were digested and counted. Cells were spread in a 96-well plate at 10,000 cells per well and in a 12-well plate at 150,000 cells per well. Cells were cultured overnight until the cells adhered to the wall.
An LNP formulation containing 1.5 μg of Fluc-mRNA (the cater component of the LNP formulation were cationic lipid, neutral lipid, structured lipid and polymer-conjugated lipid with a molar ratio of 49: 10: 39.5: 1.5, wherein the cationic lipid was listed in Table 1) and the formulation of Lipofectamine 3000 were added to the cell culture medium of a 96-well plate, and further cultivated for 24 hours. 10 μL of CCK-8 solution was then added to each well, and the culture plate was incubated in an incubator for 1 hour. The absorbance at 450 nm was measured by a microplate reader.

[3] = tested on: 293T cells; test: Fluorescent detection of Fluc-mRNA (cell transfection efficiency of LNP formulations); assay type: cell-based; conditions: for Relative light unit (RLU): LNP formulation containing 0.3 μg Fluc-mRNA, 96-well plate, 24 hours; for Multiples (YK-101): RLU of YK-101 / RLU of named substance; for Multiples (YK-107): RLU of YK-107 / RLU of named substance; for Multiples (YK-108): RLU of YK-108 / RLU of named substance; for Ratio relative to SM-102: RLU of named substance / RLU of SM-102; for difference from SM-102 in Fluc-mRNA fluorescence (GraphPad Prism analysis): statistical comparison with SM-102; for fluorescence absorption value, times that of HHMA: RLU of named substance / RLU of HHMA; for fluorescence absorption value, times that of Lipofectamine 3000: RLU of named substance / RLU of Lipofectamine 3000; for Fluc-mRNA expression signal intensity, times that of compound 21: RLU of named substance / RLU of compound 21; for fluorescence absorption value, times that of compound 23: RLU of named substance / RLU of compound 23
Description: as §1, §2
Cell recovery and passage: the method was the same as in Example 3.
Seeding plate: the method was the same as in Example 3.
An LNP formulation containing 0.3 μg of Fluc-mRNA (the carrier components of the LNP formulation were cationic lipid, neutral lipid, structured lipid and polymer-conjugated lipid with a molar ratio of 49:10:39.5:1.5, wherein the cationic lipid was listed in Table 1) was added to the cell culture medium of a 96-well plate, and further incubated for 24 hours. The corresponding reagent was added according to the instructions of the Gaussia Luciferase Assay Kit, and the fluorescence expression intensity of each well was detected by an IVIS fluorescence detection system. This test verified the transfection efficiencies of LNP formulations in cells, see Tables 3-6 for specific test results.

| PDI(%) [1] [%] | Particle size (nm) [1] [nm] | Compound | Cell survival rate (%) [2] [%] | cell survival rate lower than that of YK-101 [2] [%] | cell survival rate lower than that of YK-107 [2] [%] | cell survival rate lower than that of YK-108 [2] [%] | cell transfection activity, times that of YK-109 [3] [times] | Relative light unit (RLU) [3] [RLU] | Multiples (YK-101) [3] | Multiples (YK-107) [3] | Multiples (YK-108) [3] | Ratio relative to SM-102 [3] | difference from SM-102 in Fluc-mRNA fluorescence (GraphPad Prism analysis) [3] | fluorescence absorption value, times that of HHMA [3] [times] | fluorescence absorption value, times that of Lipofectamine 3000 [3] [times] | Fluc-mRNA expression signal intensity, times that of compound 21 [3] [times] | fluorescence absorption value, times that of compound 23 [3] [times] | cell transfection efficiency, times that of YK-121 [3] [times] |
| --- | --- | --- | --- | --- | --- | --- | --- | --- | --- | --- | --- | --- | --- | --- | --- | --- | --- | --- |
| 21.5 | 179 | CCCCCCCCCCOC(=O)CCCCCN(CCO)CCCCCC(=O)OCCC(CCCCCC)CCCCCC [YK-103, 3-hexylnonyl-6-((6-(decyloxy)-6-oxohexyl)(2-hydroxyethyl)amino)hexanoate] | 45.25 | 44.87 | 45.20 | 44.61 | 3.2 | 2312883 | 8.79 | 9.67 | 10.66 | 1.51 | no significant difference | – | – | – | – | – |
| 18.6 | 109 | CCCCCCCCCCOC(=O)CCCN(CCO)CCCCCCOC(=O)CC(CCCCCC)CCCCCC [YK-105] | 78.58 | 11.54 | 11.87 | 11.28 | – | 1593805 | 12.76 | 14.03 | 15.47 | 1.04 | no significant difference | – | – | – | – | – |
| 21.8 | 167 | CCCCCCCCCCOC(=O)CCCN(CCCCCC(=O)OCCC(CCCCCC)CCCCCC)C[C@@H](O)CO [YK-115] | 59.07 | 31.05 | 31.38 | 30.79 | – | 1427501 | 14.25 | 15.66 | 17.28 | 0.93 | – | 0.70 | 1.33 | 1.03 | 1.11 | – |
| 25.1 | 192 | CCCCCCCCCCOC(=O)CCCN(CCCCCC(=O)OCCC(CCCCCC)CCCCCC)CCOCCOCCO [YK-121, 3-hexylnonyl 6-(4-(decyloxy)-4-oxobutyl)(2-(2-(2-hydroxyethoxy)ethoxy-ethyl)amino)hexanoate] | 73.11 | 17.01 | 17.34 | 16.75 | – | 427603 | – | 52.29 | – | 0.28 | significant difference | 0.21 | 0.40 | 0.31 | 0.33 | – |
| 7.7 | 205 | CCCCCCCCCCOC(=O)CCCN(CCCCCC(=O)OCC(CCCCCCCC)CCCCCCCC)CCOCCOCCO [YK-122, 2-octyldecyl 6-(4-(decyloxy)-4-oxobutyl)(2-(2-(2-hydroxyethoxy)ethoxy-ethyl)amino)hexanoate] | 79.15 | 10.97 | 11.30 | 10.71 | – | 1418705 | 14.33 | 15.76 | 17.38 | 0.92 | no significant difference | 0.69 | 1.32 | 1.02 | 1.10 | 3.3 |
| 14.7 | 216 | CCCCCCCCCCOC(=O)CCCN(CCCCCC(=O)OCC(CCCCCCCC)CCCCCCCC)CCOCCO [YK-124, 2-octyldecyl 6-(4-(decyloxy)-4-oxobutyl)(2-(2-hydroxyethoxy-ethyl)amino)hexanoate] | 77.56 | 12.56 | 12.89 | 12.30 | – | 81596 | – | – | – | 0.05 | significant difference | 0.04 | 0.08 | 0.06 | 0.06 | – |
| 26.4 | 220 | CCCCCCCCCCOC(=O)CCCN(CCCCCC(=O)OCCC(CCCCCC)CCCCCC)CCOC(=O)CCCN(C)C [YK-125] | 35.39 | 54.73 | 55.06 | 54.47 | – | 169824 | – | 131.67 | – | 0.11 | significant difference | 0.08 | 0.16 | 0.12 | 0.13 | – |

Source: patent US20260008746A1, “CATIONIC LIPID COMPOUND WITH HIGH EFFICIENCY, LOW TOXICITY AND STABLE EXPRESSION, AND COMPOSITION COMPRISNG SAME” (HANGZHOU TIANLONG PHARMACEUTICAL CO., LTD, priority 2023, published 2026)
